According to the supplement of paper PMC11451515:

Assays:
Conditions in all cases: 48 h
SEM cells [1] = test: AUC of viability dose-response curve (% viability x log10 dose units); higher = less sensitive
Method in brief: (§1)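 Seeding of medium-adapted leukemia cells was at 500 or 1000 cells/well in 1536-well plates, followed by 48 h at 37°C with library compounds in DMSO at 11 threefold doses from 47 μM to 0.79 nM. CellTiter-Glo One luminescence was normalised per plate to DMSO and cell-free wells and fitted as a four-parameter log-logistic function of log10 dose. Area under the curve was integrated by trapezoidal rule, with curves exceeding full viability scaled and curves failing quality control removed.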

NOMO1 [2] = test: as above
Method in brief: as §1

P12-Ichikawa [3] = test: as above
Method in brief: as §1

SEM cells [4] = test: cell viability relative to DMSO control; higher = less cytotoxic
Method in brief: (§2)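 Before seeding, each leukemia line was adapted for at least four passages in each medium. NOMO1 or SEM cells (500 cells/well) and P12-Ichikawa cells (1000 cells/well) went into 1536-well plates at 5 μl, then received library compounds in DMSO by pin dosing across 11 threefold concentrations, 47 μM to 0.79 nM. Readout was CellTiter-Glo One luminescence after 48 h at 37°C, and viability is given as a per-plate percentage of DMSO wells, with cell-free wells as background.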

NOMO1 [5] = test: as above
Method in brief: as §2

P12-Ichikawa [6] = test: as above
Method in brief: as §2

COc1cc(/C=C/C(=O)O)ccc1O
AUC of viability dose-response curve
Conditions	NOMO1 [2]	P12-Ichikawa [3]	SEM cells [1]
HPLM + 10% dialyzed FBS	463	452	411
RPMI 5 mM glucose + 10% FBS	452	434	412
RPMI 5 mM glucose + 10% dialyzed FBS	438	441	460

cell viability [%]
Conditions	NOMO1 [5]	P12-Ichikawa [6]	SEM cells [4]
HPLM + 10% dialyzed FBS, 0.000781 µM	76.1	89.1	80.5
HPLM + 10% dialyzed FBS, 0.00234 µM	90.7	93	92.9
HPLM + 10% dialyzed FBS, 0.00702 µM	91.8	91.4	64.5
HPLM + 10% dialyzed FBS, 0.0211 µM	100	104	93.6
HPLM + 10% dialyzed FBS, 0.0632 µM	107	95.7	92.8
HPLM + 10% dialyzed FBS, 0.19 µM	100	102	90.1
HPLM + 10% dialyzed FBS, 0.569 µM	103	107	91.9
HPLM + 10% dialyzed FBS, 1.71 µM	98.8	99	106
HPLM + 10% dialyzed FBS, 5.12 µM	82.6	103	44.8
HPLM + 10% dialyzed FBS, 15.4 µM	108	106	89.9
HPLM + 10% dialyzed FBS, 46.1 µM	101	107	100
RPMI 5 mM glucose + 10% FBS, 0.000781 µM	84.9	90.9	94.1
RPMI 5 mM glucose + 10% FBS, 0.00234 µM	112	88.5	89
RPMI 5 mM glucose + 10% FBS, 0.00702 µM	87.8	91.9	62.1
RPMI 5 mM glucose + 10% FBS, 0.0211 µM	93.6	84.4	84.1
RPMI 5 mM glucose + 10% FBS, 0.0632 µM	95.2	88.5	99.5
RPMI 5 mM glucose + 10% FBS, 0.19 µM	101	92	94.9
RPMI 5 mM glucose + 10% FBS, 0.569 µM	92.2	99.4	101
RPMI 5 mM glucose + 10% FBS, 1.71 µM	95.1	88.4	101
RPMI 5 mM glucose + 10% FBS, 5.12 µM	107	79.1	37.5
RPMI 5 mM glucose + 10% FBS, 15.4 µM	96.6	97.1	88.4
RPMI 5 mM glucose + 10% FBS, 46.1 µM	104	101	98.1
RPMI 5 mM glucose + 10% dialyzed FBS, 0.000781 µM	84.3	88.1	93.4
RPMI 5 mM glucose + 10% dialyzed FBS, 0.00234 µM	91	89.8	99.2
RPMI 5 mM glucose + 10% dialyzed FBS, 0.00702 µM	93.9	88.7	68.6
RPMI 5 mM glucose + 10% dialyzed FBS, 0.0211 µM	93.1	94.1	110
RPMI 5 mM glucose + 10% dialyzed FBS, 0.0632 µM	83.7	91.5	115
RPMI 5 mM glucose + 10% dialyzed FBS, 0.19 µM	96.3	91.1	106
RPMI 5 mM glucose + 10% dialyzed FBS, 0.569 µM	95.7	96.3	109
RPMI 5 mM glucose + 10% dialyzed FBS, 1.71 µM	86.9	93.5	104
RPMI 5 mM glucose + 10% dialyzed FBS, 5.12 µM	89.9	91.1	46
RPMI 5 mM glucose + 10% dialyzed FBS, 15.4 µM	92.5	94.1	105
RPMI 5 mM glucose + 10% dialyzed FBS, 46.1 µM	102	99	106

CON(C)C(=O)N1/N=C(S[C@@]1(CCCN)C2=CC=CC=C2)/C3=CC(=CC=C3F)F
AUC of viability dose-response curve
Conditions	NOMO1 [2]	P12-Ichikawa [3]	SEM cells [1]
HPLM + 10% dialyzed FBS	242	183	162
RPMI 5 mM glucose + 10% FBS	211	177	171
RPMI 5 mM glucose + 10% dialyzed FBS	226	206	193

cell viability [%]
Conditions	NOMO1 [5]	P12-Ichikawa [6]	SEM cells [4]
HPLM + 10% dialyzed FBS, 0.000781 µM	119	102	96.3
HPLM + 10% dialyzed FBS, 0.00234 µM	113	118	99.9
HPLM + 10% dialyzed FBS, 0.00702 µM	117	122	42.5
HPLM + 10% dialyzed FBS, 0.0211 µM	87.5	83.1	21.7
HPLM + 10% dialyzed FBS, 0.0632 µM	34.4	12.1	23.9
HPLM + 10% dialyzed FBS, 0.19 µM	35.8	10.6	24.4
HPLM + 10% dialyzed FBS, 0.569 µM	38.6	10.1	22
HPLM + 10% dialyzed FBS, 1.71 µM	38.1	10.1	21.3
HPLM + 10% dialyzed FBS, 5.12 µM	24.6	9	10.6
HPLM + 10% dialyzed FBS, 15.4 µM	36.3	11.4	19.7
HPLM + 10% dialyzed FBS, 46.1 µM	21.6	10.7	15.3
RPMI 5 mM glucose + 10% FBS, 0.000781 µM	115	101	–
RPMI 5 mM glucose + 10% FBS, 0.00234 µM	114	114	–
RPMI 5 mM glucose + 10% FBS, 0.00702 µM	133	123	–
RPMI 5 mM glucose + 10% FBS, 0.0211 µM	69.4	61.1	–
RPMI 5 mM glucose + 10% FBS, 0.0632 µM	23.8	13.7	–
RPMI 5 mM glucose + 10% FBS, 0.19 µM	32.3	12.6	–
RPMI 5 mM glucose + 10% FBS, 0.569 µM	22.3	14.3	–
RPMI 5 mM glucose + 10% FBS, 1.71 µM	27.6	10.8	–
RPMI 5 mM glucose + 10% FBS, 5.12 µM	23	8.36	–
RPMI 5 mM glucose + 10% FBS, 15.4 µM	25.3	9.67	–
RPMI 5 mM glucose + 10% FBS, 46.1 µM	21.1	11.1	–
RPMI 5 mM glucose + 10% dialyzed FBS, 0.000781 µM	–	–	100
RPMI 5 mM glucose + 10% dialyzed FBS, 0.00234 µM	–	–	114
RPMI 5 mM glucose + 10% dialyzed FBS, 0.00702 µM	–	–	111
RPMI 5 mM glucose + 10% dialyzed FBS, 0.0211 µM	–	–	30.4
RPMI 5 mM glucose + 10% dialyzed FBS, 0.0632 µM	–	–	24.4
RPMI 5 mM glucose + 10% dialyzed FBS, 0.19 µM	–	–	22.7
RPMI 5 mM glucose + 10% dialyzed FBS, 0.569 µM	–	–	24.1
RPMI 5 mM glucose + 10% dialyzed FBS, 1.71 µM	–	–	24.8
RPMI 5 mM glucose + 10% dialyzed FBS, 5.12 µM	–	–	13
RPMI 5 mM glucose + 10% dialyzed FBS, 15.4 µM	–	–	22.2
RPMI 5 mM glucose + 10% dialyzed FBS, 46.1 µM	–	–	16.4
